Measurements from US8536187B2 (Gilead Sciences, Inc., priority 2008, dated 2013).

Legend:
[1] = system: HCV replicon in human hepatoma Huh-7 cell line; assay: Anti-HCV replicon assay, EC50 (luciferase luminescence); format: cell-based; settings: Hepatitis C virus, Huh-7, 72 h
Experimental: (§1) The anti-HCV activity of the pyrido[3,2-d]pyrimidine derivatives of this invention was tested in a human hepatoma Huh-7 cell line harboring a HCV replicon. The assay comprised the following steps: • Step 1: compound preparation and serial dilution: serial dilution is performed in 50% DMSO in a 384-well plate. A solution containing a compound at 100-fold concentration of the starting final serial dilution concentration was prepared in 50% DMSO and added to the pre-specified wells in column 1 of a polypropylene 384-well plate. The plate was then placed on a Precision 2000 Workstation to start the serial dilution. After the serial dilution, a volume of 2 μL of the solution was transferred from the 384-well plate to a 96-well cell culture plate containing 100 μL of cell media on a Biomek FX Workstation. The DMSO concentration in the final assay condition was 0.5% after cells are added to the plate and the total volume in each well is brought to 200 μL. • Step 2: to each well of the serial dilution plate prepared above, 100 μL of cell media containing 6000 suspended Huh-7 HCV replicon cells was added with a Multidrop workstation. The plates were incubated for 3 days at 37° C. with 5% CO2. • Step 3: detection: • a) for the EC50 assay, the media in a 96-well cell culture plate was aspirated with a Biotek EL405 plate-washer. A volume of 200 μL of a solution containing a 1:1 mixture of cell-lysis buffer (Promega, Luciferase Cell Culture Lysis 5× Reagent, cat. #E1531) and luciferase substrate solution (Promega, Luciferase Assay, cat.# E4550) was added to each well of the plate with Multidrop. The plate was incubated for 30 minutes at room temperature before the luminescence signal was measured with a TopCount plate-reader. • b) for the CC50 assay, a volume of 100 μL of pre-mixed CellTiter-Glo (Promega, cat.# G7572) solution is added directly to the cell culture in each well of the plate and the luminescence signal is measured with a TopCount plate-reader after 10 minutes of incubation at room temperature.

[2] = CC50 assay (CellTiter-Glo) in Huh-7 HCV replicon cells; format: cell-based; settings: human
Experimental: as §1

Row | Structure (SMILES) | EC50 [1] | CC50 at 3 days ([2]; Table 2, 3 days incubation) | CC50 at 3 days ([2]; Table 1, 3 days incubation)
1 | c1ncn(-c2ccc(CNc3nc(OC4CC4)c4nc(-c5ccc(OC6CC6)nc5)ccc4n3)cc2)n1 [Example 248, N-(4-(1H-1,2,4-triazol-1-yl)benzyl)-4-cyclopropoxy-6-(6-cyclopropoxypyridin-3-yl)pyrido[3,2-d]pyrimidin-2-amine] | < 100 nM | 1000 to 10000 nM | –
2 | COc1ccc(-c2ccc3nc(NCc4ccc(-n5cccn5)cc4)nc(NCC(F)(F)F)c3n2)cc1S(N)(=O)=O [Example 236, 5-(2-(4-(1H-pyrazol-1-yl)benzylamino)-4-(2,2,2-trifluoroethylamino)pyrido [3,2-d]pyrimidin-6-yl)-2-methoxybenzenesulfonamide] | < 100 nM | 1000 to 10000 nM | –
3 | CCS(=O)(=O)c1cc(-c2ccc3nc(NCc4ccc(S(N)(=O)=O)cc4)nc(NCC(F)(F)F)c3n2)ccc1OC [Example 149, 4-((6-(3-(ethylsulfonyl)-4-methoxyphenyl)-4-(2,2,2-trifluoroethylamino)pyrido[3,2-d]pyrimidin-2-ylamino)methyl) benzenesulfonamide] | < 100 nM | > 10000 nM | –
4 | NS(=O)(=O)c1ccc(CNc2nc(NCC(F)(F)F)c3nc(-c4ccc(F)cc4)ccc3n2)cc1Cl [Example 5, 2-Chloro-4-{[6-(4-fluoro-phenyl)-4-(2,2,2-trifluoro-ethylamino)-pyrido[-3,2-d]pyrimidin-2-ylamino]-methyl}-benzenesulfonamide] | < 100 nM | – | > 25000 nM
5 | FC(F)(F)CNc1nc(NCc2ccc(-n3cncn3)cc2)nc2ccc(-c3ccc(OC4CCC4)nc3)nc12 [Example 250, N^2-(4-(1H-1,2,4-triazol-1-yl)benzyl)-6-(6-cyclobutoxy-pyridin-3-yl)-N^4-(2,2,2-trifluoroethyl)pyrido[3,2-d] pyrimidine-2,4-diamine] | < 100 nM | 1000 to 10000 nM | –
6 | C[C@@H](Nc1nc(OC2CCC2)c2nc(-c3ccc(OC4CC4)nc3)ccc2n1)c1ccc(S(N)(=O)=O)cc1 [Example 252, 4-((R)-1-(4-cyclobutoxy-6-(6-cyclopropoxypyridin-3-yl)pyrido[3,2-d]pyrimidin-2-ylamino)ethyl)benzene-sulfonamide] | < 100 nM | 1000 to 10000 nM | –
7 | Cc1cc(S(N)(=O)=O)ccc1CNc1nc(NCC(F)(F)F)c2nc(-c3ccc(F)cc3)ccc2n1 [Example 4, 4-{[6-(4-Fluoro-phenyl)-4-(2,2,2-trifluoro-ethylamino)-pyrido[3,2-d]pyrimidin-2-ylamino]-methyl}-3-methyl-benzenesulfonamide] | 250 to 2000 nM | – | > 25000 nM
8 | C[C@@H](Nc1nc(NC2(C(F)(F)F)CCC2)c2nc(-c3ccc(F)cc3)ccc2n1)c1ccc(S(N)(=O)=O)cc1 [Example 72, (R)-4-(1-(6-(4-fluorophenyl)-4-(1-(trifluoromethyl)cyclo-butylamino)pyrido[3,2-d]pyrimidin-2-ylamino)ethyl) benzenesulfonamide] | 250 to 2000 nM | > 10000 nM | –
9 | NS(=O)(=O)c1cc(CNc2nc(NCC(F)(F)F)c3nc(-c4ccc(F)cc4)ccc3n2)cc(C(F)(F)F)c1 [Example 8, 3-{[6-(4-Fluoro-phenyl)-4-(2,2,2-trifluoro-ethylamino)-pyrido[3,2-d]pyrimidin-2-ylamino]-methyl}-5-trifluoromethyl-benzenesulfonamide] | 250 to 2000 nM | – | > 25000 nM
10 | CCOc1nc(N[C@H](C)c2ccc(S(N)(=O)=O)cc2)nc2ccc(C#CC3CC3)nc12 [Example 316, (R)-4-(1-(6-(2-cyclopropyl-ethynyl)-4-ethoxypyrido [3,2-d]pyrimidin-2-ylamino)ethyl)benzenesulfonamide] | 100 to 250 nM | > 10000 nM | –
11 | COc1ccc(-c2ccc3nc(NCc4cccc(S(N)(=O)=O)c4)nc(NCC(F)(F)F)c3n2)cc1S(C)(=O)=O [Example 144, 3-((6-(4-methoxy-3-(methylsulfonyl)phenyl)-4-(2,2,2-trifluoroethylamino)pyrido[3,2-d]pyrimidin-2-ylamino)methyl)benzene-sulfonamide] | < 100 nM | 1000 to 10000 nM | –
12 | CCOc1ccc(-c2ccc3nc(NCc4cccc(S(C)(=O)=O)c4)nc(NCC(F)(F)F)c3n2)cn1 [Example 230, N^2-(3-(methylsulfonyl)benzyl)-6-(6-ethoxypyridin-3-yl)-N^4-(2,2,2-trifluoroethyl)pyrido [3,2-d]pyrimidine-2,4-diamine] | < 100 nM | > 10000 nM | –
13 | Cc1cc(S(N)(=O)=O)ccc1C(C)Nc1nc(NCC(F)(F)F)c2nc(-c3ccc(F)cc3)ccc2n1 (stereo not shown) [Example 10, 4-{1-[6-(4-Fluoro-phenyl)-4-(2,2,2-trifluoro-ethylamino)-pyrido[3,2-d]pyrimidin-2-ylamino]-ethyl}-3-methyl-benzenesulfonamide] | 100 to 250 nM | – | < 10000 nM
14 | CS(=O)(=O)c1cccc(-c2ccc3nc(NCc4ccc(-n5cncn5)nc4)nc(NCC(F)(F)F)c3n2)c1 [Example 184, N^2-((6-(1H-1,2,4-triazol-1-yl)pyridin-3-yl)methyl)-6-(3-(methylsulfonyl)phenyl)-N^4-(2,2,2-trifluoroethyl)pyrido [3,2-d]pyrimidine-2,4-diamine] | < 100 nM | 1000 to 10000 nM | –
15 | NS(=O)(=O)c1cccc(CNc2nc(NC3(C(F)(F)F)CCCCC3)c3nc(-c4ccc(F)cc4)ccc3n2)c1 [Example 66, 3-((6-(4-fluorophenyl)-4-(1-(trifluoromethyl)cyclohexylamino)pyrido[3,2-d]pyrimidin-2-ylamino)methyl)benzene-sulfonamide] | 100 to 250 nM | > 10000 nM | –
16 | CCOc1ccc(-c2ccc3nc(N[C@H](C)Cn4cncn4)nc(NCC(F)(F)F)c3n2)cn1 [Example 232, N^2-((R)-1-(1H-1,2,4-triazol-1-yl)propan-2-yl)-6-(6-ethoxypyridin-3-yl)-N^4-(2,2,2-trifluoroethyl)pyrido[3,2-d] pyrimidine-2,4-diamine] | < 100 nM | 1000 to 10000 nM | –
17 | FC(F)(F)CNc1nc(NCc2ccc(-n3cncn3)cc2)nc2ccc(C#CC3CC3)nc12 [Example 287, N^2-(4-(1H-1,2,4-triazol-1-yl)benzyl)-6-(2-cyclopropyl-ethynyl)-N^4-(2,2,2-trifluoroethyl) pyrido[3,2-d]pyrimidine-2,4-diamine] | 100 to 250 nM | > 10000 nM | –
18 | C[C@H](Cn1cncn1)Nc1nc(NCC(F)(F)F)c2nc(-c3ccc(OC(F)F)c(S(C)(=O)=O)c3)ccc2n1 [Example 206, N^2-((R)-1-(1H-1,2,4-triazol-1-yl)propan-2-yl)-6-(4-(difluoromethoxy)-3-(methylsulfonyl)phenyl)-N^4-(2,2,2-trifluoroethyl) pyrido[3,2-d]pyrimidine-2,4-diamine] | 250 to 2000 nM | > 10000 nM | –
19 | NS(=O)(=O)c1ccc(CNc2nc(OC3CC3)c3nc(C#CC4CC4)ccc3n2)cc1 [Example 286, 4-((4-cyclopropoxy-6-(2-cyclopropylethynyl)pyrido [3,2-d]pyrimidin-2-ylamino)methyl)benzenesulfonamide] | 100 to 250 nM | > 10000 nM | –
20 | CC(C)Oc1nc(NCc2ccc(-n3cncn3)cc2)nc2ccc(-c3cccc(S(C)(=O)=O)c3)nc12 [Example 198, N-(4-(1H-1,2,4-triazol-1-yl)benzyl)-4-isopropoxy-6-(3-(methylsulfonyl)phenyl)pyrido [3,2-d]pyrimidin-2-amine] | < 100 nM | > 10000 nM | –
